Test results published in ChEMBL document CHEMBL5579835, “Fluorescent octahydrophenazines as novel inhibitors against herpes simplex viruses” (Eur J Med Chem, 2024).
Calls of active or inactive are those of the source. The rule behind the calls is not given here.

Tests used:
[1] = Fluorescence property of compound in cyclohexane assessed as maximum emission wavelength in presence of fluorescein by spectrophotometric analysis; format: physicochemical
Human alphaherpesvirus 1 [2] = test: Antiviral activity against HSV-1 infected in African green monkey Vero cells assessed as reduction in viral growth by measuring relative cell viability at 20 uM incubated for 72 hrs by MTT assay; format: functional
[3] = Fluorescence property of compound in H2O assessed as fluorescence quantum yield in presence of fluorescein by spectrophotometric analysis; format: physicochemical
[4] = Fluorescence property of compound in cyclohexane assessed as fluorescence quantum yield in presence of fluorescein by spectrophotometric analysis; format: physicochemical
[5] = Drug accumulation in African green monkey Vero cells assessed as subcellular localization in endoplasmic reticulum at 20 uM incubated for 1 to 24 hr by Me-THP-Naph staining based confocal scanning laser microscopic analysis; format: ADME, cell-based; conditions: chlorocebus sabaeus, time 1-24 hrs
[6] = Fluorescence property of compound in crystal assessed as maximum emission wavelength in presence of fluorescein by spectrophotometric analysis; format: physicochemical
[7] = Fluorescence property of compound in crystal assessed as fluorescence quantum yield in presence of fluorescein by spectrophotometric analysis; format: physicochemical
[8] = Fluorescence property of compound in H2O assessed as maximum emission wavelength in presence of fluorescein by spectrophotometric analysis; format: physicochemical
Human alphaherpesvirus 1 [9] = test: Antiviral activity against HSV-1 infected in African green monkey Vero cells assessed as reduction in viral growth incubated for 72 hrs by MTT assay; format: functional, organism-based; conditions: Human alphaherpesvirus 1, Vero
Human alphaherpesvirus 1 [10] = test: Antiviral activity against HSV-1 infected in African green monkey Vero cells assessed as downregulation of viral gD mRNA expression at 5 to 20 uM by RT-qPCR analysis; format: functional, organism-based; conditions: dose 5-20 µM
Human alphaherpesvirus 2 [11] = test: Antiviral activity against HSV-2 infected in African green monkey Vero cells assessed as reduction in viral growth incubated for 72 hrs by MTT assay; format: functional, organism-based; conditions: Human alphaherpesvirus 2, Vero
Human alphaherpesvirus 1 [12] = test: Antiviral activity against HSV-1 infected in African green monkey Vero cells assessed as downregulation of viral gD protein expression at 5 to 20 uM by Western blotting analysis; format: functional, organism-based; conditions: dose 5-20 µM
Human alphaherpesvirus 2 [13] = test: Antiviral activity against ACV-resistant HSV-2 infected in African green monkey Vero cells assessed as reduction in viral growth incubated for 72 hrs by MTT assay; format: functional, organism-based; conditions: Human alphaherpesvirus 2, Vero
Human alphaherpesvirus 1 [14] = test: Antiviral activity against HSV-1 infected in African green monkey Vero cells assessed as downregulation of viral gD mRNA expression at 20 uM pre-treated with compound for 1 hr followed by viral infection by RT-qPCR analysis; format: functional, organism-based
Human alphaherpesvirus 1 [15] = test: Antiviral activity against HSV-1 infected in African green monkey Vero cells assessed as downregulation of viral gD protein expression at 20 uM pre-treated with compound for 1 hr followed by viral infection by Western blotting analysis; format: functional, organism-based
Human alphaherpesvirus 2 [16] = test: Antiviral activity against HSV-2 infected in African green monkey Vero cells assessed as protection of cellular morphology incubated for 24 hrs CPE based microscopic analysis; format: functional, organism-based
[17] = Cytotoxicity against human HEK293T cells assessed as cell viability at 80 uM incubated for 48 hrs by MTT assay relative to control; format: toxicity, cell-based, HEK-293T; conditions: read-out: Activity
Human alphaherpesvirus 1 [18] = test: Antiviral activity against HSV-1 infected in African green monkey Vero cells assessed as protection of cellular morphology incubated for 24 hrs by CPE based microscopic analysis; format: functional, organism-based
Human alphaherpesvirus 1 [19] = test: Antiviral activity against HSV-1 infected in African green monkey Vero cells assessed as reduction in viral plaque formation at 20 uM pre-treated with compound for 36 to 48 hrs followed by viral infection by crystal violet staining based assay; format: functional, organism-based; conditions: time 36-48 hrs
Human alphaherpesvirus 1 [20] = test: Antiviral activity against HSV-1 infected in African green monkey Vero cells assessed as downregulation of viral ICP8 protein expression at 20 uM measured after 2 hrs by Western blotting analysis; format: functional, organism-based
[21] = Cytotoxicity against human HEK293T cells incubated for 48 hrs by MTT assay; format: toxicity, cell-based, HEK-293T
Human alphaherpesvirus 1 [22] = test: Antiviral activity against HSV-1 infected in African green monkey Vero cells assessed as downregulation of viral VP16 mRNA expression at 20 uM incubated under co-plus post treatment condition for 1 hr by RT-qPCR analysis; format: functional, organism-based
Human alphaherpesvirus 1 [23] = test: Antiviral activity against HSV-1 infected in African green monkey Vero cells assessed as downregulation of viral gD mRNA expression at 20 uM incubated under co-treatment condition for 1 hr by RT-qPCR analysis; format: functional, organism-based
Human alphaherpesvirus 1 [24] = test: Antiviral activity against HSV-1 infected in African green monkey Vero cells assessed as downregulation of viral gD protein expression at 20 uM measured after 2 hrs by Western blotting analysis; format: functional, organism-based
Human alphaherpesvirus 1 [25] = test: Antiviral activity against HSV-1 infected in African green monkey Vero cells assessed as downregulation of viral gD mRNA expression at 20 uM incubated under co-plus post treatment condition for 1 hr by RT-qPCR analysis; format: functional, organism-based
Human alphaherpesvirus 1 [26] = test: Antiviral activity against HSV-1 infected in African green monkey Vero cells assessed as downregulation of viral ICP8 protein expression at 20 uM pre-treated with compound for 1 hr followed by viral infection by Western blotting analysis; format: functional, organism-based
Human alphaherpesvirus 1 [27] = test: Antiviral activity against HSV-1 infected in African green monkey Vero cells assessed as downregulation of viral VP16 mRNA expression at 20 uM pre-infected with virus followed by compound treatment by RT-qPCR analysis; format: functional, organism-based
Human alphaherpesvirus 1 [28] = test: Antiviral activity against HSV-1 infected in African green monkey Vero cells assessed as downregulation of viral gD mRNA expression incubated for 48 hrs by RT-qPCR analysis; format: functional, organism-based
Human alphaherpesvirus 1 [29] = test: Antiviral activity against HSV-1 infected in African green monkey Vero cells assessed as downregulation of viral gD protein expression at 10 uM incubated for 48 hrs by Western blotting analysis; format: functional, organism-based
Human alphaherpesvirus 1 [30] = test: Antiviral activity against HSV-1 infected in African green monkey Vero cells assessed as downregulation of viral VP16 mRNA expression at 20 uM incubated under co-treatment condition for 1 hr by RT-qPCR analysis; format: functional, organism-based
HEK-293T = test: Cytotoxicity against human HEK293T cells at 5 to 80 uM incubated for 48 hrs by MTT assay; format: toxicity, cell-based; conditions: dose 5-80 µM
Human alphaherpesvirus 2 [31] = test: Antiviral activity against ACV-resistant HSV-2 infected in African green monkey Vero cells assessed as downregulation of viral gD protein expression at 20 uM incubated for 48 hrs by Western blotting analysis; format: functional, organism-based
Human alphaherpesvirus 1 [32] = test: Antiviral activity against HSV-1 infected in African green monkey Vero cells assessed as downregulation of viral VP16 mRNA expression at 20 uM pre-treated with compound for 1 hr followed by viral infection by RT-qPCR analysis; format: functional, organism-based
Human alphaherpesvirus 1 [33] = test: Antiviral activity against HSV-1 infected in African green monkey Vero cells assessed as downregulation of viral gD mRNA expression at 20 uM pre-infected with virus followed by compound treatment by RT-qPCR analysis; format: functional, organism-based
Human alphaherpesvirus 1 [34] = test: Antiviral activity against HSV-1 infected in African green monkey Vero cells assessed as downregulation of viral VP16 mRNA expression incubated for 48 hrs by RT-qPCR analysis; format: functional, organism-based
Human alphaherpesvirus 1 [35] = test: Antiviral activity against HSV-1 infected in African green monkey Vero cells assessed as reduction in viral growth by measuring relative cell viability at 5 uM incubated for 72 hrs by MTT assay; format: functional

CN1c2c(C#N)c(F)c(F)c(C#N)c2N(C)[C@@H]2CCCC[C@H]21
Activity [1]: 515 nm
Activity (Human alphaherpesvirus 1 [2]): 8%
Activity [3]: 57.1%
Activity [4]: 90.3%
Drug uptake [5]: Active
Activity [6]: 560 nm
Activity [7]: 57.3%
Activity [8]: 555 nm

CN1c2c(C#N)c(F)c(F)c(C#N)c2N(C)[C@H]2CCCC[C@@H]21
Activity [1]: 515 nm
Activity (Human alphaherpesvirus 1 [2]): 40%
Activity [3]: 59.1%
EC50 (Human alphaherpesvirus 1 [9]): 4.1 µM
Activity (Human alphaherpesvirus 1 [10]): Active
Activity [4]: 92.3%
Drug uptake [5]: Active
EC50 (Human alphaherpesvirus 2 [11]): 5.8 µM
Activity (Human alphaherpesvirus 1 [12]): Active
Activity [6]: 560 nm
Activity [7]: 56.9%
EC50 (Human alphaherpesvirus 2 [13]): 7.9 µM
Activity [8]: 555 nm

CN1c2c(C#N)c3c(c(C#N)c2N(C)C2CCCCC21)OCCN3 (racemic)
Activity (Human alphaherpesvirus 1 [2]): 1%

CN1c2c(C#N)c3c(c(C#N)c2N(C)C2CCCCC21)OCCO3 (racemic)
Activity (Human alphaherpesvirus 1 [2]): 0%

N#Cc1c(F)c(F)c(C#N)c2c1NC1CCCCC1N2 (racemic)
Activity (Human alphaherpesvirus 1 [2]): 7%

CN1c2c(C#N)c(F)c(N3CCCC3)c(C#N)c2N(C)C2CCCCC21 (racemic)
Activity (Human alphaherpesvirus 1 [2]): 9%

CN1c2c(C#N)c(F)c(N3CCCCC3)c(C#N)c2N(C)C2CCCCC21 (racemic)
Activity (Human alphaherpesvirus 1 [2]): 6%

CN(C)c1c(F)c(C#N)c2c(c1C#N)N(C)C1CCCCC1N2C (racemic)
Activity (Human alphaherpesvirus 1 [2]): 5%

CN1CCOc2c(C#N)c3c(c(C#N)c21)N(C)C1CCCCC1N3C (racemic)
Activity (Human alphaherpesvirus 1 [2]): 4%

CN1c2c(C#N)c(F)c(N3CCOCC3)c(C#N)c2N(C)C2CCCCC21 (racemic)
Activity (Human alphaherpesvirus 1 [2]): 8%

CN1c2c(C#N)c(F)c(F)c(C#N)c2N(C)C2CCCCC21 (racemic)
Activity (Human alphaherpesvirus 1 [14]): inactive
Activity (Human alphaherpesvirus 1 [15]): Active
Activity (Human alphaherpesvirus 2 [16]): Dose-Dependent Effect
viability at 48 h, 80 µM [17]: 100%
Activity [1]: 515 nm
Activity (Human alphaherpesvirus 1 [18]): Dose-Dependent Effect
Activity (Human alphaherpesvirus 1 [2]): 39%
Activity (Human alphaherpesvirus 1 [19]): Active
Activity (Human alphaherpesvirus 1 [20]): Active
Activity [3]: 56.2%
CC50 at 48 h [21]: > 100 µM
Activity (Human alphaherpesvirus 1 [22]): Active
Activity (Human alphaherpesvirus 1 [23]): inactive
EC50 (Human alphaherpesvirus 1 [9]): 9.2 µM
Activity (Human alphaherpesvirus 1 [24]): Active
Activity [4]: 91.6%
Activity (Human alphaherpesvirus 1 [25]): Active
Drug uptake [5]: Active
Activity (Human alphaherpesvirus 1 [26]): Active
Activity (Human alphaherpesvirus 1 [27]): Active
Activity (Human alphaherpesvirus 1 [28]): Dose-Dependent Effect
Activity (Human alphaherpesvirus 1 [29]): Active
EC50 (Human alphaherpesvirus 2 [11]): 11 µM
Activity (Human alphaherpesvirus 1 [30]): Active
Activity (HEK-293T): Non-Toxic
Activity (Human alphaherpesvirus 2 [31]): Active
Activity [6]: 558 nm
Activity (Human alphaherpesvirus 1 [32]): inactive
Activity [7]: 54.4%
Activity (Human alphaherpesvirus 1 [33]): Active
EC50 (Human alphaherpesvirus 2 [13]): 14.9 µM
Activity [8]: 555 nm
Activity (Human alphaherpesvirus 1 [34]): Dose-Dependent Effect

CN1c2c(F)c(C#N)c(F)c(C#N)c2N(C)C2CCCCC21 (racemic)
Activity (Human alphaherpesvirus 1 [2]): 0%

CN1c2c(F)c(C#N)c(C#N)c(F)c2N(C)C2CCCCC21 (racemic)
Activity (Human alphaherpesvirus 1 [2]): 3%

Nc1nc2c(ncn2COCCO)c(=O)[nH]1 [ACYCLOVIR]
Activity (Human alphaherpesvirus 1 [35]): 81%
